The values below come from article PMC5554137, “Evaluation of novel factor Xa inhibitors from Oxya chinensis sinuosa with anti-platelet aggregation activity” (Scientific Reports, 2017).

In one data set the test system is Trypsin. The data set is described as follows: Chromogenic substrate assay, Ki determination, Trypsin. In kind it is biochemical, human. To be noted: for Ki: substrate S-2222. Here is the method:
(§1) The inhibitor (I) constants (Ki) were determined for the inhibition of a series of human enzymes (FXa, thrombin, trypsin, plasmin, protein Ca, streptokinase, tPA, and urokinase) by each compound. Chromogenic substrate assays were performed using a Labsystems IEMS (Cergy Pontoise, France) microtiter plate reader. In each assay, the compound was tested at a minimum of seven concentrations in duplicate to obtain an inhibition curve. Assays were performed according to the following general procedure. In a 96-well microtiter plate, 25 μL of compound, inhibitor solution or buffer was added to 50 μL of substrate. A volume of 25 μL of enzyme solution was added just before the plate was placed in the microtiter plate reader for 1 h at 37 °C. The hydrolysis of the substrate yields p-nitroaniline, which was continuously monitored spectrophotometrically at 405 nm. Data were collected and the initial rate of substrate hydrolysis [Vo (mOD/minute)] was calculated. Following Michaelis-Menten kinetics, the affinity of the enzyme for the substrate, in the absence of the inhibitor (Km) and in the presence of an inhibitor (Kp), was determined to be the negative inverse x-intercept of Lineweaver–Burk plots. The dissociation constant for inhibition (Ki) was calculated using the following equation: Ki = (Km·[I])/(Kp − Km) as described by Williams and Morrison[40].

Another data set concerns the target Urokinase (Homo sapiens, UniProt P00749). Briefly: Chromogenic substrate assay, Ki determination, Urokinase. The following applies: for Ki: substrate S-2444. In kind it is biochemical. The procedure:
as §1

For another data set, the target named is T1, α-Thrombin (Homo sapiens, UniProt P00734).
T1 construct: FXa converts prothrombin to thrombin; purchased Haematologic Technologies (Essex Junction, VT, USA)
Briefly: Chromogenic substrate assay, Ki determination, α-Thrombin. The following applies: for Ki: substrate S-2238. In kind it is biochemical. Here is the method:
as §1

Data set [1] relates to Streptokinase (Homo sapiens). Briefly: Chromogenic substrate assay, Ki determination, Streptokinase. In kind it is biochemical. The following applies: for Ki: substrate S-2251. Here is the method: as §1
Streptokinase (Homo sapiens), sequence (P00747 581-810 limits assumed): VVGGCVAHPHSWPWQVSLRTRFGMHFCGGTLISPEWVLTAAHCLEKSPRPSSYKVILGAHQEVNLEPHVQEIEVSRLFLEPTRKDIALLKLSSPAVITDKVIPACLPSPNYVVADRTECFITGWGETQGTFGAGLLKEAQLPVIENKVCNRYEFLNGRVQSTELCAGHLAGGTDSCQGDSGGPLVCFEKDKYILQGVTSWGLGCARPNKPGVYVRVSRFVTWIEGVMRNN
The next data set concerns C57BL/6 mice. The data set is described as follows: Tail bleeding time. To be noted: tail-cutting assay, mean ± SD, n = 10. Format: in vivo. Here is the method: Figure 4 Effects of compounds 1–4 on clotting and bleeding time. (A) One hour after administration (intravenous injection) of compound 1 (white box), 2 (light gray box), 3 (dark gray box), or 4 (black box), blood was collected from the mice and platelet-poor plasma (PPP) was obtained by centrifugation at 2,000 × g for 10 min at room temperature to test ex vivo activated partial thromboplastin time (aPTT). (B) Each group received a daily intravenous injection of the indicated compound for four consecutive days. Fifteen minutes after the last administration, blood samples were collected and in vivo aPTT was measured. (C) Fifteen minutes after administration of each compound or aspirin (4.5 or 9 mg/kg for 30 min) or the vehicle, tail tips (3 mm long) were cut from each mouse, and the remaining tail was immediately immersed into saline at 37 °C. Accumulated bleeding times (including periods of re-bleeding) were recorded. D = 0.2% DMSO used as the vehicle control. Data are presented as means ± SD of three independent experiments. *p < 0.05 vs. vehicle alone, analyzed by one-way ANOVA, followed by Tukey multiple comparison testing.
To assess bleeding risk incurred by compounds 1–4, we measured bleeding time in mice treated with each compound (up to 30 µM/mouse) by using a tail-cutting assay; the concentration used was three-fold higher than the doses used for the in vivo anti-thrombotic studies. Aspirin-treated mice (9 mg/kg) served as positive controls. […] However, the bleeding time in mice treated with compounds 1–4 was shorter than that observed in mice treated with aspirin ([…], mean ± SD, n = 10). The dose required to avoid thrombus formation and to protect against paralysis or death in mice was determined to be 5 µM per mouse (Fig. 7C).
Tail bleeding times were measured using the method described by Dejana et al.[37]. Briefly, C57BL/6 mice were fasted overnight prior to the experiments. […] after the i.v. administration of each compound, the tails of the mice were transected […] from their tips. Bleeding time was defined as the time elapsed until bleeding stopped. Bleeding times that exceeding 15 min were recorded as 15 min.

The target in a further data set is Plasmin (Homo sapiens, UniProt P00747). The data set is described as follows: Chromogenic substrate assay, Ki determination, Plasmin. In kind it is biochemical. The following applies: for Ki: substrate S-2251. The procedure:
as §1

Data set [2] has as its target T2, FXa (Homo sapiens, UniProt P00742).
T2 construct: purchased Haematologic Technologies (Essex Junction, VT, USA)
The data set is described as follows: Chromogenic substrate assay, Ki determination, Factor Xa. Format: biochemical. To be noted: for Ki: substrate S-2765 (Table 3), mean ± SD (n = 5). Here is the method: as §1

Another data set has as its target tPA (Homo sapiens, UniProt P00750). Briefly: Chromogenic substrate assay, Ki determination, tPA. In kind it is biochemical. The following applies: for Ki: substrate S-2228. The procedure: as §1
The target in data set [3] is T2, FXa. Briefly: Inhibition of amidolytic activity of FXa toward S-2222 (Michaelis-Menten, Lineweaver-Burk; with or without TFPI). Format: biochemical. To be noted: for type of inhibition of FXa (Lineweaver-Burk plots) / slope of inhibition activity plot: S-2222; for slope of inhibition activity plot: FXa; for Ki: substrate S-2222. Here is the method: To elucidate the mechanisms responsible for inhibition of coagulation and platelet aggregation by compounds 1–4, inhibition of FXa activity was determined using chromogenic substrates. […] We observed a decrease in Vmax, with no effect on the Km of FXa toward S-2222 in the presence of compound 1. […] We also observed a slope of 0.401 for the control without compound 2, and slopes of 0.442 and 0.465 for compound 2 at concentrations of 2 and 5 µM, respectively. […] We observed a decrease in Vmax, with no effect on the Km of FXa toward S-2222 in the presence of compound 2. […] Inhibition activity plots were obtained for different concentrations of compound 3, showing a slope of 0.388 for the control without compound 3, and slopes of 0.408 and 0.464 for compound 3 at concentrations of 2 and 5 µM, respectively. […] We also observed a slope of 0.363 for the control without compound 4, and slopes of 0.376 and 0.398 for compound 4 at concentrations of 2 and 5 µM, respectively. […] We observed a decrease in Vmax, with no effect on the Km of FXa toward S-2222 in the presence of compound 4.
Figure 6 Effects of compounds 1–4 on inhibition and production of FXa. […] The plots represent means of three independent measurements. (E) Human umbilical vein endothelial cells (HUVECs) were pre-incubated with the indicated concentration of each compound for 10 min. HUVECs stimulated with tumor necrosis factor-α (TNF-α, 10 ng/mL for 6 h) were incubated with FVIIa (10 nM) and FX (175 nM) in the absence or presence of anti-TF IgG (25 µg/mL). FXa production was determined as described in the “ Supplementary Materials and Methods” section. D = 0.2% DMSO used as the vehicle control. (F) Inhibition of FXa by each compound (5 μM) with or without TFPI (2 nM) was monitored using a chromogenic assay. ^* p < 0.05 vs. TNF-α alone (E) or each compound (F) alone, analyzed via one-way ANOVA, followed by Tukey multiple comparison testing.
Each compound with or without TFPI was dissolved in 50 mM Tris-HCl buffer (pH 7.4) containing 7.5 mM EDTA and 150 mM NaCl. Following a 2-min incubation at 37 °C, FXa solution (150 μL, 1 U/mL) was added, followed by incubation at 37 °C for 1 min. S-2222 (an FXa substrate, 150 μL, 1.5 mM) solution was subsequently added, and the absorbance at 405 nm was monitored for 20 min using a spectrophotometer (TECAN, Männedorf, Switzerland). The absorbance-time curve and the slope of the curve (Vi) were used to represent the activity of the enzyme. Distilled water served as a control (the slope of curve V0). The inhibitory effect was calculated according to equation (1):1 Inhibitoryrate(%)=(V0−Vi)/V0×100 where V0 represents the slope of the vehicle and Vi represents the slope of the samples.

The target of another data set is Protein Ca (Homo sapiens, UniProt P04070). The data set is described as follows: Chromogenic substrate assay, Ki determination, Protein Ca. Format: biochemical. To be noted: for Ki: substrate S-2366. Here is the method:
as §1

A value given as a limit tells only on which side of the number the result lay.

tPA, sequence (P00750 36-562): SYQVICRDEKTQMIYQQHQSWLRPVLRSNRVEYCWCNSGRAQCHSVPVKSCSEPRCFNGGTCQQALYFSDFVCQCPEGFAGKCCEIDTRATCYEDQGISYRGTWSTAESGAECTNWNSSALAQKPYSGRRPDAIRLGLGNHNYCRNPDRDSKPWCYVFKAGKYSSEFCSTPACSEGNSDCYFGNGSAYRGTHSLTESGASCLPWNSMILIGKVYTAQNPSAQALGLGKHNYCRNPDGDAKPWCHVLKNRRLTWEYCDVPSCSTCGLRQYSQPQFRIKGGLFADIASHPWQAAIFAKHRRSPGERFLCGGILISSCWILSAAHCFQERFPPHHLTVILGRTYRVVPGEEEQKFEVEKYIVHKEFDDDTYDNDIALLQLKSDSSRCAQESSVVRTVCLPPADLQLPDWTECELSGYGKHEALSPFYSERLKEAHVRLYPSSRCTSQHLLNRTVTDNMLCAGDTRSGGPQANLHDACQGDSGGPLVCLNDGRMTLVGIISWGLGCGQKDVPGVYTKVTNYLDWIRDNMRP
Protein Ca, sequence (P04070 212-461 limits assumed): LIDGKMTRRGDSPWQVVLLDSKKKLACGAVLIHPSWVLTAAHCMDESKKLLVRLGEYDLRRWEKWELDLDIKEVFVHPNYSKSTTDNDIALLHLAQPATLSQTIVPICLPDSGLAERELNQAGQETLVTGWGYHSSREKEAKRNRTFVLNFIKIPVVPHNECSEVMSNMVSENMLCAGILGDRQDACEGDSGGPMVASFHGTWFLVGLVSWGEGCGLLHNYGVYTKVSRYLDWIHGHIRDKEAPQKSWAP
Protein Ca, sequence (P04070 43-197 limits assumed): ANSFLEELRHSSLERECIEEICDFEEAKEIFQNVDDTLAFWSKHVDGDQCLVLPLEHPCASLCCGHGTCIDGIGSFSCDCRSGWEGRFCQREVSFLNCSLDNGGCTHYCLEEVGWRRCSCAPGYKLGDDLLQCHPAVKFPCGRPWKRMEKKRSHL
Plasmin, sequence (P00747 581-810 limits assumed): as the sequence (P00747 581-810 limits assumed) above
Plasmin, sequence (P00747 97-580 limits assumed): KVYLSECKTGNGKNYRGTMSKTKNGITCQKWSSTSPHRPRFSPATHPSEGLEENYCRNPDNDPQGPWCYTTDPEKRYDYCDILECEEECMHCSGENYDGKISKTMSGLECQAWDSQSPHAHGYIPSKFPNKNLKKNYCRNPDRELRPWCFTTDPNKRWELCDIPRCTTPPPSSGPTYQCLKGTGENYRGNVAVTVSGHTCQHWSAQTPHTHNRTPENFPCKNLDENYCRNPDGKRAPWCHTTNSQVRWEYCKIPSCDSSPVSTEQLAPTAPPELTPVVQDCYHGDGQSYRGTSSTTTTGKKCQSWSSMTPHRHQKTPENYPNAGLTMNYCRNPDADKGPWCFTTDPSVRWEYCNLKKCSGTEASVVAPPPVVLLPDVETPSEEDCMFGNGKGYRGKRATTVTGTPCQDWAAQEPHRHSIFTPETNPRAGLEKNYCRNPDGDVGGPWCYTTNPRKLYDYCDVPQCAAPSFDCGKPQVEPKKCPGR
T2 sequence (P00742 235-488 limits assumed): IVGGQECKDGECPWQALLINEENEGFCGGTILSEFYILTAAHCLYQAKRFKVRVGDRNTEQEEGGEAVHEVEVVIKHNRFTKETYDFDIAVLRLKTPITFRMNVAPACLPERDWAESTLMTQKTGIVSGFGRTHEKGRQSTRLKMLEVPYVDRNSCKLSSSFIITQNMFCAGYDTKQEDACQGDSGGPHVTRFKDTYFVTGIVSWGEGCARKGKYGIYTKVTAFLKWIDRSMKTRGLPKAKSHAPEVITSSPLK
T2 sequence (P00742 41-179 limits assumed): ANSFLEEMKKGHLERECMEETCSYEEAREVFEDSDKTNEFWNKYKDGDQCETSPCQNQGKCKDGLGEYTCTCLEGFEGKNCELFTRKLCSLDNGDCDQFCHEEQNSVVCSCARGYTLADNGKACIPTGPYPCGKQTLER

On to `CC(=O)NCCc1ccc2c(c1)O[C@@H](NC(C)=O)[C@@H](c1ccc(O)c(O)c1)O2` [Compound 2, (2 R,3 R)-2-(3′,4′-dihydroxyphenyl)-3-acetylamino-6-(N-acetyl-2″-aminoethyl)-1,4-benzodioxane], for which, in the data set with Trypsin, the “Ratio = Ki enzyme/Ki Factor Xa, Trypsin” value is recorded as greater than 100 and the Ki (as a rule, the equilibrium dissociation constant of an inhibitor or competing ligand from its target) was greater than 500 µM. Further, on Urokinase, the “Ratio = Ki enzyme/Ki Factor Xa, Urokinase” value was greater than 100 and the Ki is greater than 500 µM. Besides, on α-Thrombin, the “Ratio = Ki enzyme/Ki Factor Xa, α-Thrombin” value was greater than 100 and the inhibition constant Ki is greater than 500 µM. In data set [1], the “Ratio = Ki enzyme/Ki Factor Xa, Streptokinase” value is given as greater than 100 and the Ki was greater than 500 µM. The bleeding time in the data set with C57BL/6 mice (mice treated with 10 µM) stood at 12.5 ± 1.2 min. Besides, the bleeding time in the data set on C57BL/6 mice (mice treated with 30 µM) is 13.5 ± 1.1 min. For the same compound, at Plasmin, the “Ratio = Ki enzyme/Ki Factor Xa, Plasmin” value is on record as greater than 100 and the Ki is greater than 500 µM. Moreover, on FXa [2], the “Ratio = Ki enzyme/Ki Factor Xa, Factor Xa” value was 1 and the affinity, expressed as Ki, was 4.13 ± 0.43 µM. On tPA, the “Ratio = Ki enzyme/Ki Factor Xa, tPA” value is given as greater than 100 and the Ki is greater than 500 µM. At FXa [3], the “Km of FXa toward S-2222 in the presence of compound” value (“Km” for short) is “no effect”, the “Vmax of FXa toward S-2222 in the presence of compound” value (“Vmax” for short) was “decrease”, the “type of inhibition of FXa (Lineweaver-Burk plots)” value (shortened to “type of inhibition of FXa”) was “noncompetitive inhibition” and affinity was put at a Ki of 4.13 µM. On FXa [3] (compound at 2 µM), the “slope of inhibition activity plot” value came to 0.442. Further, at FXa [3] (compound at 5 µM), the “slope of inhibition activity plot” value turned out to be 0.465. For the same compound, at Protein Ca, the “Ratio = Ki enzyme/Ki Factor Xa, Protein Ca” value is greater than 100 and the Ki is greater than 500 µM.
Regarding `CC(=O)NCCc1ccc2c(c1)O[C@H](NC(C)=O)[C@@H](c1ccc(O)c(O)c1)O2` [Compound 3, (2 R,3 S)-2-(3′,4′-dihydroxyphenyl)-3-acetylamino-6-(N-acetyl-2″-aminoethyl)-1,4-benzodioxane], in the data set with Trypsin, the “Ratio = Ki enzyme/Ki Factor Xa, Trypsin” value is greater than 100 and the Ki is greater than 500 µM. At Urokinase, the “Ratio = Ki enzyme/Ki Factor Xa, Urokinase” value was greater than 100 and the Ki was greater than 500 µM. Further, at α-Thrombin, the “Ratio = Ki enzyme/Ki Factor Xa, α-Thrombin” value is greater than 100 and the Ki is greater than 500 µM. In data set [1], the “Ratio = Ki enzyme/Ki Factor Xa, Streptokinase” value is reported as greater than 100 and the Ki was greater than 500 µM. The compound further came in with a bleeding time in the data set with C57BL/6 mice (mice treated with 10 µM) of 12.1 ± 1.1 min. The compound also returned a bleeding time with C57BL/6 mice (mice treated with 30 µM) of 12.3 ± 1.3 min. For the same compound, at Plasmin, the “Ratio = Ki enzyme/Ki Factor Xa, Plasmin” value is listed as greater than 100 and the Ki was greater than 500 µM. At FXa [2], the “Ratio = Ki enzyme/Ki Factor Xa, Factor Xa” value was found to be 1 and the Ki was determined as 4.45 ± 0.37 µM. Also, at tPA, the “Ratio = Ki enzyme/Ki Factor Xa, tPA” value is greater than 100 and the Ki is greater than 500 µM. Moreover, on FXa [3], the “Km” value was “no effect”, the “Vmax” value was “decrease”, the “type of inhibition of FXa” value is on record as “noncompetitive inhibition” and the Ki is 4.45 µM. The “slope of inhibition activity plot” value at FXa [3] (compound at 2 µM) worked out at 0.408. Also, on FXa [3] (compound at 5 µM), the “slope of inhibition activity plot” value amounted to 0.464. Also, on Protein Ca, the “Ratio = Ki enzyme/Ki Factor Xa, Protein Ca” value is reported as greater than 100 and the Ki was greater than 500 µM.
Consider `CC(=O)NCCc1ccc2c(c1)O[C@H](c1ccc(O)c(O)c1)[C@@H](NC(C)=O)O2` [Compound 4, (2 R,3 S)-2-(3′,4′-dihydroxyphenyl)-3-acetylamino-7-(N-acetyl-2″-aminoethyl)-1,4-benzodioxane], for which, in the data set with Trypsin, the “Ratio = Ki enzyme/Ki Factor Xa, Trypsin” value is greater than 100 and the Ki was greater than 500 µM. Further, on Urokinase, the “Ratio = Ki enzyme/Ki Factor Xa, Urokinase” value is reported as greater than 100 and the Ki was greater than 500 µM. Besides, on α-Thrombin, the “Ratio = Ki enzyme/Ki Factor Xa, α-Thrombin” value is reported as greater than 100 and the Ki is greater than 500 µM. Moreover, in data set [1], the “Ratio = Ki enzyme/Ki Factor Xa, Streptokinase” value is recorded as greater than 100 and the Ki was greater than 500 µM. In addition, at Plasmin, the “Ratio = Ki enzyme/Ki Factor Xa, Plasmin” value is greater than 100 and the Ki is greater than 500 µM. Further, on FXa [2], the “Ratio = Ki enzyme/Ki Factor Xa, Factor Xa” value is given as 1 and the affinity corresponds to a Ki of 4.72 ± 0.31 µM. Further, at tPA, the “Ratio = Ki enzyme/Ki Factor Xa, tPA” value is listed as greater than 100 and the Ki was greater than 500 µM. For the same compound, at FXa [3], the “Km” value is recorded as “no effect”, the “Vmax” value is given as “decrease”, the “type of inhibition of FXa” value is listed as “noncompetitive inhibition” and affinity was put at a Ki of 4.72 µM. Also, the “slope of inhibition activity plot” value at FXa [3] (compound at 2 µM) was found to be 0.376. Besides, the “slope of inhibition activity plot” value on FXa [3] (compound at 5 µM) is listed as 0.398. Moreover, on Protein Ca, the “Ratio = Ki enzyme/Ki Factor Xa, Protein Ca” value is on record as greater than 100 and the Ki was greater than 500 µM.
